Common to all, as to format: functional
Common to all, as to details: time 16-20 hrs

One assay deals with Staphylococcus aureus. Description: Antibacterial activity against Staphylococcus aureus ATCC25923 incubated for 16 to 20 hrs by broth microdilution method. Background: Dilution methods test growth across graded concentrations, often in twofold steps.
The subject of a further assay is Escherichia coli. Put plainly: Antibacterial activity against Escherichia coli ATCC25922 incubated for 16 to 20 hrs by broth microdilution method.
In another assay the test system is Enterococcus faecalis. Description: Antibacterial activity against Enterococcus faecalis ATCC29212 incubated for 16 to 20 hrs by broth microdilution method.
The test system of assay [1] is Stenotrophomonas maltophilia. Description: Antibacterial activity against Stenotrophomonas maltophilia ATCC17808 incubated for 16 to 20 hrs by broth microdilution method.

Molecules are shown by their SMILES. Converted amounts (≈) assume the structure as drawn.

Take `CC[C@H]1OC(=O)C[C@@H](O)[C@H](C)[C@@H](O[C@@H]2O[C@H](C)[C@@H](O)[C@H](N(C)C)[C@H]2O)[C@@H](CCN(C)Cc2cn(-c3cnc4ccccc4c3)nn2)C[C@@H](C)C(=O)/C=C/C(C)=C/[C@@H]1CNc1ccc(C)cc1`: the MIC amounted to 4 µg/mL (≈ 4.39 µM) against Staphylococcus aureus, 4 µg/mL (≈ 4.39 µM) in the assay on Escherichia coli, 8 µg/mL (≈ 8.79 µM) with Enterococcus faecalis and 4 µg/mL (≈ 4.39 µM) in assay [1].

On to `CC[C@H]1OC(=O)C[C@@H](O)[C@H](C)[C@@H](O[C@@H]2O[C@H](C)[C@@H](O)[C@H](N(C)C)[C@H]2O)[C@@H](CCN(C)Cc2cn(-c3cnc4ccccc4c3)nn2)C[C@@H](C)C(=O)/C=C/C(C)=C/[C@@H]1CNc1ccc2ccccc2c1`, for which the minimum inhibitory concentration (MIC) is 4 µg/mL (≈ 4.23 µM) against Staphylococcus aureus, 8 µg/mL (≈ 8.45 µM) with Escherichia coli, 8 µg/mL (≈ 8.45 µM) in the assay with Enterococcus faecalis and 4 µg/mL (≈ 4.23 µM) in assay [1].

For the compound `CC[C@H]1OC(=O)C[C@@H](O)[C@H](C)[C@@H](O[C@@H]2O[C@H](C)[C@@H](O)[C@H](N(C)C)[C@H]2O)[C@@H](CCN(C)Cc2cn(-c3cnc4ccccc4c3)nn2)C[C@@H](C)C(=O)/C=C/C(C)=C/[C@@H]1CNc1ccc(I)cc1`, the minimal inhibitory concentration (MIC) was determined as 2 µg/mL (≈ 1.96 µM) against Staphylococcus aureus, 4 µg/mL (≈ 3.91 µM) in the assay on Escherichia coli, 8 µg/mL (≈ 7.83 µM) in the assay with Enterococcus faecalis and 4 µg/mL (≈ 3.91 µM) in assay [1].

For `CC[C@H]1OC(=O)C[C@@H](O)[C@H](C)[C@@H](O[C@@H]2O[C@H](C)[C@@H](O)[C@H](N(C)C)[C@H]2O)[C@@H](CCN(C)Cc2cn(-c3cnc4ccccc4c3)nn2)C[C@@H](C)C(=O)/C=C/C(C)=C/[C@@H]1CN1CCCc2ccccc21`, the minimum inhibitory concentration (MIC) against Staphylococcus aureus came to 2 µg/mL (≈ 2.14 µM); in the assay with Escherichia coli, 2 µg/mL (≈ 2.14 µM); against Enterococcus faecalis, 2 µg/mL (≈ 2.14 µM); in assay [1], 4 µg/mL (≈ 4.27 µM).

Take `CC[C@H]1OC(=O)C[C@@H](O)[C@H](C)[C@@H](O[C@@H]2O[C@H](C)[C@@H](O)[C@H](N(C)C)[C@H]2O)[C@@H](CCNCc2cn(-c3cnc4ccccc4c3)nn2)C[C@@H](C)C(=O)/C=C/C(C)=C/[C@@H]1CNCc1ccccc1`: the MIC was 2 µg/mL (≈ 2.23 µM) against Staphylococcus aureus, 1 µg/mL (≈ 1.12 µM) in the assay on Escherichia coli, 2 µg/mL (≈ 2.23 µM) against Enterococcus faecalis and 1 µg/mL (≈ 1.12 µM) in assay [1].

Consider `CC[C@H]1OC(=O)C[C@@H](O)[C@H](C)[C@@H](O[C@@H]2O[C@H](C)[C@@H](O)[C@H](N(C)C)[C@H]2O)[C@@H](CCN(C)Cc2cn(-c3cnc4ccccc4c3)nn2)C[C@@H](C)C(=O)/C=C/C(C)=C/[C@@H]1CNCc1ccc(C)cc1`, for which the minimum inhibitory concentration (MIC) against Staphylococcus aureus came out at 1 µg/mL (≈ 1.08 µM); in the assay on Escherichia coli it was 2 µg/mL (≈ 2.16 µM); with Enterococcus faecalis, 4 µg/mL (≈ 4.33 µM); in assay [1], 2 µg/mL (≈ 2.16 µM).

Turning to `CC[C@H]1OC(=O)C[C@@H](O)[C@H](C)[C@@H](O[C@@H]2O[C@H](C)[C@@H](O)[C@H](N(C)C)[C@H]2O)[C@@H](CCN(C)Cc2cn(-c3cnc4ccccc4c3)nn2)C[C@@H](C)C(=O)/C=C/C(C)=C/[C@@H]1CNCc1ccc(Cl)cc1`, the MIC with Staphylococcus aureus turned out to be 2 µg/mL (≈ 2.12 µM); in the assay on Escherichia coli, 1 µg/mL (≈ 1.06 µM); in the assay on Enterococcus faecalis, 2 µg/mL (≈ 2.12 µM); in assay [1], 4 µg/mL (≈ 4.23 µM).

In the case of `CCCN(C)C[C@H]1/C=C(C)/C=C/C(=O)[C@H](C)C[C@H](CCNCc2cn(-c3cnc4ccccc4c3)nn2)[C@H](O[C@@H]2O[C@H](C)[C@@H](O)[C@H](N(C)C)[C@H]2O)[C@@H](C)[C@H](O)CC(=O)O[C@@H]1CC`, the MIC worked out at 0.5 µg/mL (≈ 0.58 µM) in the assay with Staphylococcus aureus and 4 µg/mL (≈ 4.64 µM) in the assay with Escherichia coli.

In the case of `CC[C@H]1OC(=O)C[C@@H](O)[C@H](C)[C@@H](O[C@@H]2O[C@H](C)[C@@H](O)[C@H](N(C)C)[C@H]2O)[C@@H](CCN(Cc2cn(-c3cnc4ccccc4c3)nn2)c2ccccc2)C[C@@H](C)C(=O)/C=C/C(C)=C/[C@@H]1CN(C)C(C)C`, the MIC was determined as 0.5 µg/mL (≈ 0.533 µM) with Staphylococcus aureus and 8 µg/mL (≈ 8.53 µM) in the assay on Escherichia coli.

As for `CCCCN(CCCC)C[C@H]1/C=C(C)/C=C/C(=O)[C@H](C)C[C@H](CCNCc2cn(-c3cnc4ccccc4c3)nn2)[C@H](O[C@@H]2O[C@H](C)[C@@H](O)[C@H](N(C)C)[C@H]2O)[C@@H](C)[C@H](O)CC(=O)O[C@@H]1CC`, the MIC in the assay on Staphylococcus aureus came out at 2 µg/mL (≈ 2.18 µM); with Escherichia coli, 8 µg/mL (≈ 8.71 µM).

Take `CC[C@H]1OC(=O)C[C@@H](O)[C@H](C)[C@@H](O[C@@H]2O[C@H](C)[C@@H](O)[C@H](N(C)C)[C@H]2O)[C@@H](CCNCc2cn(-c3cnc4ccccc4c3)nn2)C[C@@H](C)C(=O)/C=C/C(C)=C/[C@@H]1CO`: the MIC in the assay on Staphylococcus aureus turned out to be 0.25 µg/mL (≈ 0.31 µM); in the assay on Escherichia coli, 4 µg/mL (≈ 4.96 µM).

Consider `CCCNC[C@H]1/C=C(C)/C=C/C(=O)[C@H](C)C[C@H](CCN(C)Cc2cn(-c3cnc4ccccc4c3)nn2)[C@H](O[C@@H]2O[C@H](C)[C@@H](O)[C@H](N(C)C)[C@H]2O)[C@@H](C)[C@H](O)CC(=O)O[C@@H]1CC`, for which the figures for the MIC against Staphylococcus aureus and in the assay with Escherichia coli were 2 µg/mL (≈ 2.32 µM) and 8 µg/mL (≈ 9.28 µM), respectively.

As to `CC[C@H]1OC(=O)C[C@@H](O)[C@H](C)[C@@H](O[C@@H]2O[C@H](C)[C@@H](O)[C@H](N(C)C)[C@H]2O)[C@@H](CCNCc2cn(-c3cnc4ccccc4c3)nn2)C[C@@H](C)C(=O)/C=C/C(C)=C/[C@@H]1CN1CCCCCC1`, the minimum inhibitory concentration (MIC) stood at 0.5 µg/mL (≈ 0.563 µM) against Staphylococcus aureus and 1 µg/mL (≈ 1.13 µM) in the assay on Escherichia coli.

In the case of `CC[C@H]1OC(=O)C[C@@H](O)[C@H](C)[C@@H](O[C@@H]2O[C@H](C)[C@@H](O)[C@H](N(C)C)[C@H]2O)[C@@H](CCN(C)Cc2cn(-c3cnc4ccccc4c3)nn2)C[C@@H](C)C(=O)/C=C/C(C)=C/[C@@H]1CN(C)C1CCCCC1`, the MIC in the assay with Staphylococcus aureus turned out to be 1 µg/mL (≈ 1.09 µM); against Escherichia coli it was 4 µg/mL (≈ 4.37 µM).

Take `CC[C@H]1OC(=O)C[C@@H](O)[C@H](C)[C@@H](O[C@@H]2O[C@H](C)[C@@H](O)[C@H](N(C)C)[C@H]2O)[C@@H](CCNCc2cn(-c3cnc4ccccc4c3)nn2)C[C@@H](C)C(=O)/C=C/C(C)=C/[C@@H]1CN(C)C`: the MIC in the assay on Staphylococcus aureus is 0.5 µg/mL (≈ 0.599 µM); with Escherichia coli, 2 µg/mL (≈ 2.4 µM).

As for `CC[C@H]1OC(=O)C[C@@H](O)[C@H](C)[C@@H](O[C@@H]2O[C@H](C)[C@@H](O)[C@H](N(C)C)[C@H]2O)[C@@H](CCN(Cc2cn(-c3cnc4ccccc4c3)nn2)c2ccccc2)C[C@@H](C)C(=O)/C=C/C(C)=C/[C@@H]1CN(C)C1CCCCC1`, the MIC in the assay with Staphylococcus aureus was 0.5 µg/mL (≈ 0.511 µM); against Escherichia coli, 4 µg/mL (≈ 4.09 µM).

`CC[C@H]1OC(=O)C[C@@H](O)[C@H](C)[C@@H](O[C@@H]2O[C@H](C)[C@@H](O)[C@H](N(C)C)[C@H]2O)[C@@H](CCN(C)Cc2cn(-c3cnc4ccccc4c3)nn2)C[C@@H](C)C(=O)/C=C/C(C)=C/[C@@H]1CI`: the MIC against Staphylococcus aureus was determined as 2 µg/mL (≈ 2.15 µM); against Escherichia coli, 16 µg/mL (≈ 17.2 µM).

Take `CC[C@H]1OC(=O)C[C@@H](O)[C@H](C)[C@@H](O[C@@H]2O[C@H](C)[C@@H](O)[C@H](N(C)C)[C@H]2O)[C@@H](CCNCc2cn(-c3cnc4ccccc4c3)nn2)C[C@@H](C)C(=O)/C=C/C(C)=C/[C@@H]1CN1CCCCC1`: the figures for the MIC against Staphylococcus aureus and against Escherichia coli were 0.5 µg/mL (≈ 0.572 µM) and 2 µg/mL (≈ 2.29 µM), respectively.

`CCCNC[C@H]1/C=C(C)/C=C/C(=O)[C@H](C)C[C@H](CCNCc2cn(-c3cnc4ccccc4c3)nn2)[C@H](O[C@@H]2O[C@H](C)[C@@H](O)[C@H](N(C)C)[C@H]2O)[C@@H](C)[C@H](O)CC(=O)O[C@@H]1CC`: the MIC was 1 µg/mL (≈ 1.18 µM) in the assay on Staphylococcus aureus and 8 µg/mL (≈ 9.43 µM) in the assay with Escherichia coli.

Consider `CC[C@H]1OC(=O)C[C@@H](O)[C@H](C)[C@@H](O[C@@H]2O[C@H](C)[C@@H](O)[C@H](N(C)C)[C@H]2O)[C@@H](CCNCc2cn(-c3cnc4ccccc4c3)nn2)C[C@@H](C)C(=O)/C=C/C(C)=C/[C@@H]1CN(C)C(C)C`, for which the minimal inhibitory concentration (MIC) in the assay with Staphylococcus aureus was determined as 0.5 µg/mL (≈ 0.58 µM); against Escherichia coli it was 2 µg/mL (≈ 2.32 µM).

Usually MIC stands for the lowest concentration that inhibits growth of the organism. A higher MIC goes with a need for much substance.

These data come from ChEMBL document CHEMBL6074711, “Design, Synthesis, and Activity Evaluation of C-23-Modified 5-O-Mycaminosyltylonolide Derivatives” (ACS Med Chem Lett, 2024).
